Data on three compounds can be found in PMC11648822, “Lactam Truncation Yields a Dihydroquinazolinone Scaffold with Potent Antimalarial Activity that Targets PfATP4” (Chemmedchem, 2024).

≈ marks a conversion by molar mass, not a printed value. Where two headings read alike, the source gives them in different places. Marks after values point to notes of the source that are not given here.

The test system of series [1] is P. falciparum W2^mef. The series can be described thus: Multidrug-resistant parasite viability assay (SYBR green), W2mef. It is filed as cell-based. Conditions: Plasmodium falciparum, W2, 72 h, read-out: multidrug resistant P. falciparum strains EC50 (SD) W2^mef. The method, then: (§1) These assays were performed as previously described.[16] P. falciparum 3D7 parasites and resistant lines Dd2, W2mef, 7G8, and artemisinin‐resistant Cambodian isolate (Cam3.I (2539T)), and P. knowlesi YH1, were cultured in human O^+ erythrocytes (RBCs) (Australian Red Cross Blood Service), in RPMI‐HEPES culture medium (pH 7.4, 50 μg/mL hypoxanthine, 25 mM NaHCO3, 20 μg/mL gentamicin, 0.5 % Albumax II (GibcoBRL)) (Thermo Fisher Scientific) and maintained in an atmosphere of 1 % O2, 4 % CO2 and 95 % N2. Parasites were synchronised with 5 % (w/v) sorbitol (Sigma‐Aldrich) treatments for ring stages. Growth assays for measuring drug inhibition of in‐cycle, ring to schizont stage parasites have been described previously. Parasites were grown in 1 % haematocrit, at 1 % and 2 % parasitaemia for P. falciparum and P. knowlesi respectively. […] Parasitaemia was measured using a SYBR DNA staining assay on a fluorometer.[33] After the incubation period, supernatants were removed and well contents were resuspended in PBS.

In series [2] the test system is P. falciparum NF54 male gametes. The series can be described thus: Dual gamete formation assay, male. It is filed as cell-based. Conditions: Plasmodium falciparum; NF54 stage V gametocytes, 48 h incubation; exflagellation 20 min after induction. The method, then: (§2) PfATP4 inhibitors are known to block the transmission of parasites from humans to mosquitoes by interfering with both gametocytes and gamete development.[29] We evaluated a subset of truncated analogues against male and female gametes using a previously described assay. In this assay, stage V gametocytes are treated with compounds and then xanthurenic acid is added and a drop in temperature is used to simulate the mosquito gut environment to induce gametogenesis. After 30 min of compound treatment, male gamete viability is determined by microscopy measuring exflagellation, and after 24 h of compound treatment, female viability is measured using a female gamete specific αPfs25 antibody.
(§3) The compounds were evaluated as previously described.[34] Briefly, mature P. falciparum NF54 stage V gametocytes were exposed to compounds for 48 h at 37 °C in 384 well plates in gametocyte culture medium (RPMI 1640 supplemented with 25 mM HEPES, 50 μg mL^−1 hypoxanthine, 4.8 g L^−1 NaHCO3, 2 mM L‐glutamine, 5 % pooled type AB serum, 0.5 % Albumax II (Gibco)) under a 1 % O2/ 3 % CO2/ 96 % N2 environment. Gametogenesis was then triggered by the addition of 10 μL ookinete medium (gametocyte culture medium supplemented with 100 μM xanthurenic acid and 0.27 μg mL^−1 Cy3‐labelled anti‐Pfs25 antibody) to each well at room temperature. Plates were then cooled on a metal block at 4 °C for four min to ensure even cooling and then stabilised for a further 4 min at 28 °C. At 20 min post‐induction, male gametogenesis was recorded in each well by automated brightfield microscopy using a x4 objective lens and 1.5x magnifier (x6 effective magnification). Afterward, plates were incubated in the dark at room temperature for 24 h and then female gametogenesis was recorded in each well by automated fluorescence microscopy (anti‐Pfs25‐positive cells). […] All data was evaluated in comparison to the positive and negative controls to calculate percentage inhibition of male and female gametocytes, and dose response analysis and EC50 calculation were performed using GraphPad Prism.

The nature of series [3]: Aqueous solubility (pH 7.4). It is filed as physicochemical. The text has this:
(§4) Human liver microsome stability, rat hepatocyte stability, aqueous solubility and eLogD are platform assays conducted by TCG Lifesciences and undertaken using previously described protocols.[10]

For series [4], the system named is P. falciparum Dd2 PfATP4^D425E strain. The series can be described thus: 'compound 49' resistant parasite viability assay (LDH), Dd2 D425E. In kind it is cell-based. Conditions: Plasmodium falciparum, DD2, 72 h, read-out: Dd2^D425E EC50 (SD). The method, then:
(§5) These assays were performed according to a previously described protocol.[16] Briefly, P. falciparum Dd2 strains treated with compound were incubated for 72 h at 37 °C. After incubating for 72 h, plates were frozen at −80 °C and then thawed at room temperature for at least 2 h. LDH activity, a surrogate for parasite growth was measured by the addition of the Malstst reagent mix, followed by incubation for 30 min and absorbance read using a ClarioStar Microplate reader at 650 nm. Values were normalized to DMSO control as a percentage and EC50 and dose response curves generated using GraphPad Prism.

The subject of series [5] is P. falciparum 3D7 parasites. The series can be described thus: P. falciparum viability assay (SYBR green), 3D7. It is filed as cell-based. The settings on record: Plasmodium falciparum, read-out: P. falciparum parental EC50 (SD) 3D7. On the procedure: These assays were performed as previously described.[16] […] Parasites were synchronised with 5 % (w/v) sorbitol (Sigma‐Aldrich) treatments for ring stages. […] Parasites were grown in 1 % haematocrit, at 1 % and 2 % parasitaemia for P. falciparum and P. knowlesi respectively. […] Parasitaemia was measured using a SYBR DNA staining assay on a fluorometer.[33] After the incubation period, supernatants were removed and well contents were resuspended in PBS.

Series [6] relates to P. falciparum Dd2 PfATP4^F156L strain. The series can be described thus: 'compound 49' resistant parasite viability assay (LDH), Dd2 F156L. In kind it is cell-based. The settings on record: Plasmodium falciparum, DD2, 72 h, read-out: Dd2^F156L EC50 (SD). The method, then:
as §5

Series [7] concerns P. falciparum Dd2 PfATP4^G358S strain. Description: PfATP4 drug resistant parasite viability assay (LDH), Dd2 G358S. In kind it is cell-based. Conditions: for EC50: Plasmodium falciparum, DD2, 72 h, read-out: Dd2^G358S EC50 (SD). On the procedure:
as §5

In series [8] the test system is P. falciparum NF54 female gametes. Description: Dual gamete formation assay, female. Conditions: Plasmodium falciparum; NF54 stage V gametocytes, 48 h incubation; αPfs25 antibody 24 h after induction. It is filed as cell-based. The method, then:
as §2, §3

Series [9] can be described thus: Human liver microsome stability. It is filed as in vitro ADME. Conditions: human liver microsomes; read-out: HLM CLint.
Description: as §4
(Liver microsomes are a subcellular fraction often used to study metabolism.)

Series [10] has as its system P. falciparum Dd2 strain with 2.8-fold amplification in PfATP4. The series can be described thus: 'compound 49' resistant parasite viability assay (LDH), Dd2 2.8 CNV. It is filed as cell-based. Conditions: Plasmodium falciparum, DD2, 72 h, read-out: Dd2^2.8 CNV EC50 (SD). On the procedure:
as §5

Series [11] has as its system P. falciparum Dd2 PfATP4^triple (I398F, P990R, D1247Y) strain. Description: PfATP4 drug resistant parasite viability assay (LDH), Dd2 triple. In kind it is cell-based. Conditions: Plasmodium falciparum, DD2, 72 h, read-out: Dd2^triple EC50 (SD). On the procedure: as §5
In series [12] the test system is P. falciparum Dd2. The series can be described thus: P. falciparum viability assay (SYBR green), Dd2. In kind it is cell-based. Conditions: Plasmodium falciparum, DD2, 72 h, read-out: P. falciparum parental EC50 (SD) Dd2. On the procedure: as §1
Series [13] in a line: eLogD shake-flask method. In kind it is physicochemical.
Description: as §4

A short description of series [14]: Human HepG2 cytotoxicity assay (Cell Titre Glo). It is filed as cell-based. The settings on record: HepG2 cells, growth inhibition at 48 h, 4 replicate experiments, read-out: HepG2 CC50 (SD). The text has this: This assay uses Cell TitreGlo as a metabolic maker for human HepG2 cell growth and uses a protocol previously described.[32]
Setting [15] is: aqueous medium at pH 7.4, pH 7.4, aqueous buffer.

What is called EC50 is the concentration giving half of the maximal effect. By solubility is commonly meant how much of the substance goes into solution per volume. A low value points to a poorly soluble substance. Usually CC50 stands for the concentration at which the toxic effect on the cells reaches its halfway point. Regarding `CN1C(=O)c2ccc(Cl)cc2NC1(C)C(=O)Nc1cncc(Cl)c1` (centres unmarked) [Compound 14, 7‐Chloro‐N‐(5‐chloro‐3‐pyridyl)‐2,3‐dimethyl‐4‐oxo‐1H‐quinazoline‐2‐carboxamide], the EC50 in series [1] amounted to 17 nM; in [2], 130 nM; in series [4], 55 nM; in series [5] (3D7, SYBR green, 72 h), 16 nM; in series [6] it was 89 nM; in series [7], 61 nM. The EC50 amounted to 120 nM in series [8], 61 nM in series [10], 160 nM in [11] and 19 nM in series [12]. Besides, the solubility in [3] (aqueous medium (pH 7.4; buffer not named), pH 7.4, aqueous buffer) was 5.2 µM (≈ 1.9 µg/mL); in series [3] (aqueous medium at pH 7.4 (buffer not named), pH 7.4, aqueous buffer), below 5.2 µM. For the same compound, the microsomal CLint in series [9] was 60 µL/min/mg. The eLogD in [13] is 3.2^[d]. In addition, the CC50 at 48 h in [14] is above 40000 nM.
On to `CN1C(=O)c2ccc(-n3cccn3)cc2NC1(C)C(=O)Nc1cncc(Cl)c1` (centres unmarked) [Compound 33, N‐(5‐Chloropyridin‐3‐yl)‐2,3‐dimethyl‐4‐oxo‐7‐(1H‐pyrazol‐1‐yl)‐1,2,3,4‐tetrahydroquinazoline‐2‐carboxamide], for which the half-maximal effective concentration (EC50) in series [1] was found to be 39 nM; in series [2], 460 nM; in series [4], 126 nM; in series [5] (3D7, 72 h), 45 nM; in [6], 125 nM; in series [7] it was 537 nM. Besides, the EC50 in series [8] turned out to be 1000 nM; in series [10], 124 nM; in [11], 584 nM; in series [12], 46 nM. In addition, in series [3] (setting [15]), the concentration in solution (solubility) was 2.6 µM (≈ 1.03 µg/mL). The “fold less potent against PfATP4^G358S strain relative to the Dd2 parental line” value in series [7] (ratio of EC50s) was 7 fold. The microsomal CLint in series [9] worked out at 37 µL/min/mg. Besides, the eLogD in series [13] is 3.2^[d]. The CC50 at 48 h in series [14] was above 40000 nM.
For `COc1cc(F)c2c(c1)NC(C)(C(=O)Nc1cncc(Cl)c1)N(C)C2=O` (centres unmarked) [Compound 36, N‐(5‐Chloropyridin‐3‐yl)‐5‐fluoro‐7‐methoxy‐2,3‐dimethyl‐4‐oxo‐1,2,3,4‐tetrahydroquinazoline‐2‐carboxamide], the EC50 was 10 nM in series [1]; 110 nM in series [2]; 43 nM in [4]; 10 nM in series [5] (3D7, SYBR green, 72 h); 47 nM in series [6]; 41 nM in [7]. For the same compound, the EC50 amounted to 210 nM in [8], 56 nM in series [10], 100 nM in series [11] and 13 nM in series [12]. In addition, in [3] (setting [15]), the solubility amounted to 4 µM (≈ 1.52 µg/mL). Further, in [9], the microsomal CLint is 34 µL/min/mg. The eLogD in [13] is 2.6^[d]. Further, in series [14], the 50% cytotoxic concentration (CC50) at 48 h is above 40000 nM.
